Experimental data: patent US20220016035A1, “Extended Release Highly Loaded Drug Compositions” (Lubrizol Advanced Materials, Inc., priority 2017, published 2022)

Assays:
[1] = Forced degradation testing of Levetiracetam blends (Table 8), Levetiracetam acid and total impurities by HPLC; type: physicochemical; details: blend, 12 Day exposure, 60 C./75% RH
[2] = Forced degradation testing of Levetiracetam tablets and powder blends, 12 days, impurities by HPLC; type: physicochemical; details: Levetiracetam examples, forced degradation conditions
Procedure: 1.4 g of anhydrous di basic sodium phosphate in 1 liter of water. Adjusted to pH 3.5 with Orth phosphoric acid. Filter buffer with 0.45 um Nylon membrane filter paper. A mixture of 95 volumes of buffer solution and 5 volumes of Acetonitrile. To each 1 Liter of the mixture, add 1 g of sodium 1-hexanesulfonate monohydrate. […] Cool and make up to the volume with water. (Standard Stock Solution 2500 ppm). Next, Dilute 5 mL of standard solution a to 50 mL with water (Standard Solution (a) 250 ppm), further Dilute 5 mL of standard solution (a) to 100 mL with water (Standard Solution 12.5 ppm). […] Cool to room temperature and add 25 mL of acetonitrile to volumetric flask and make up the volume with water and centrifuge for 15 min @ 3500 RPM. filter the solution with 0.45 μm PVDF Millipore membrane syringe filter by discarding first 5 mL of filtrate. Dilute 5 mL of filtrate to 10 mL with water (2500 ppm). This group of examples is subjected to forced degradation testing conditions, where each example is formed into a tablet and then stored at 60 to 80 degrees C. and 75% relative humidity for a period of 5 or 12 days. At the end of the 5 days or 12 days each tablet is tested for its pH level and percent impurities. […]

| Levetiracetam Acid [1] | WT % IMPURITY [2] [WT %] | Compound |
| --- | --- | --- |
| 0.01 |  | CC[C@@H](C(N)=O)N1CCCC1=O [EX 34, Levetiracetam] |
|  | 0.02 | CC[C@@H](C(N)=O)N1CCCC1=O [EX 31, Levetiracetam] |
